“Also recorded” adds a separate entry of the source. Ends that are not written are not given here. Peptide text beside a SMILES is read from it.

In one assay the target is T1, CXCL6 (Homo sapiens, UniProt P80162).
T1 sequence (P80162 38-114): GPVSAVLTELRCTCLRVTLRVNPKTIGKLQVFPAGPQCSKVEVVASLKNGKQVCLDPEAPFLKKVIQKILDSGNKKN
The assay can be described thus: cell-based. To be noted: HD2 mutant peptides 10 μM, chemokine at EC80. On the procedure:
FIG. 11. […] Technical replicates are shown as individual data points. […] The response curve (solid blue line) and its 95% confidence interval (grey ribbon) were calculated using a 4-parameter log-logistic plot.
The J:CXCR1 cell line was generated by transfecting Jurkat cells by electroporation with PvuI-linearized plasmid D1398 and selecting with blasticidin (Sigma-Aldrich, Cat #203350, […]). […] J:CXCR1 cells were cultured in RPMI-1640 media (Gibco), supplemented with 10% FBS and 5 mM L-Glutamine with blasticidin. For J:CXCR1 migration assays, 300,000 cells/well were added to the top chamber of a 3 μm Transwell insert (Corning) in 50 μL of migration media (RPMI-1640, 0.5% FBS, 4 mM L-Glutamine, 0.05% DMSO). The bottom chamber contained 150 μL of chemokine, with or without peptide. Cells were migrated at 37° C. in 5% CO2 for 4 hours. The plate was incubated on a shaking platform for 10 minutes, 800 rpm, at 37° C., and 150 μL from the bottom of the plate transferred into a U-bottom plate containing 50 μL of migration media. Cell counts were determined by Attune NxT Flow Cytometer Plate Reader (ThermoFisher), based on cell size parameters FSC-H/SSC-H. Experiments were performed in 3 technical and 3 biological replicates. THP-1 migration assays were carried out using methods known in the art. Activated T-cell assays were carried out using methods known in the art, with the following modifications in the isolation process. Peripheral blood cells were obtained from leucocyte cones (NHS Blood Transfusion Services), following which, T-cells were isolated using two rounds of human CD8+ T-cell isolation kit (480011, BioLegend). At day 10 after activation, T-cells were frozen at 20 E6 cells/ml in TexMACS medium supplemented with 10% DMSO (D2650, Sigma) in liquid nitrogen. Prior to use, activated T-cells were recovered for 24 hours in TexMACs medium at 0.3 E6 cells/ml and incubated at 37° C. in 5% CO2. Chemokine sources are described in Supplementary information Table 3. Statistical significances between control experimental groups was evaluated using Dunnett's test. IC50 experiments were performed at the EC80 dose of chemokine. EC80 was calculated by fitting a chemokine dose-response curve with 3 parameters (fixing the top to 100%). IC50 was calculated by fitting an inhibitor response curve with 4 parameters.
Migration assays using THP1, activated T-cell (ATC) and J:CXCR1 (Jurkat cells stably transfected with CXCR1 receptor) were performed as described previously. IC50 experiments were performed at the EC80 dose of chemokine. EC80 was calculated by fitting a chemokine dose-response curve with 3 parameters (fixing the top to 100%). IC50 was calculated by fitting an inhibitor response curve with 4 parameters. R-packages used were ggupset_0.3.0, DescTools_0.99.44, and drc_3.0-1.

The subject of assay [1] is panel of 24 biotinylated chemokines. In words: Phage-display screen of HD2 NNK saturation mutagenesis library. To be noted: for Chemokines Bound log2E 1-5 / Chemokines Bound log2E > 5: HD2 saturation mutants, chemokines on streptavidin beads, UniProt entry names. Format: binding, human.

As to `CC(C)C[C@H](NC(=O)[C@@H]1CCCN1C(=O)[C@H](C)NC(=O)[C@H](Cc1ccc(O)cc1)NC(=O)[C@H](C)NC(=O)[C@@H](NC(=O)[C@H](Cc1ccc(O)cc1)NC(=O)[C@H](CC(=O)O)NC(=O)[C@H](CC(=O)O)NC(=O)[C@H](CCC(=O)O)NC(=O)[C@@H](N)CCC(=O)O)[C@@H](C)O)C(=O)N[C@H](C(=O)N[C@@H](CS)C(=O)N[C@@H](Cc1ccc(O)cc1)C(=O)N[C@@H](Cc1ccccc1)C(=O)N[C@@H](CS)C(N)=O)[C@@H](C)O` [HD2_C16, EEDDYTAYAPLTCYFC] (H-EEDDYTAYAPLTCYFC-NH2; N-terminus assumed), on CXCL6, the “chemotaxis compared with the parental HD2 peptide” value was “significant reduction in chemotaxis”. In assay [1], the “Chemokines Bound log2E 1-5” value is on record as “CCL1, X3CL1, CXL10, CXL11,; also recorded: CXL14” and the “Chemokines Bound log2E > 5” value is listed as “IL8”. The “peak log 2 E” value in assay [1] (best mutation at each residue) was “highest peak log 2 E at that residue”.

With “EEDDWTAYAPLTCYFT-NH2 [HD2_W5, EEDDWTAYAPLTCYFT]”, in assay [1], the “Chemokines Bound log2E 1-5” value is given as “CCL1, CCL11, CCL15, CCL17,; also recorded: CCL18, CCL19, CCL2, CCL22,; also recorded: CCL28, CCL3, CCL4, X3CL1,; also recorded: CXL11, SDF1, IL8” and the “Chemokines Bound log2E > 5” value was “CXL10, CXL13”. The “mean log 2 E compared to parental HD2” value in assay [1] (over XC (CXC/CX3C) chemokines) is recorded as “significant improvement”. In addition, in assay [1] (over all chemokines), the “mean log 2 E compared to parental HD2” value is “significant improvement”.

As to EEDDYTAYWPLTCYFT [A9W], the “chemotaxis compared with the parental HD2 peptide” value in the assay with CXCL6 is given as “significant reduction in chemotaxis”.

In the case of EEDDYWAYAPLTCYFT [HD2_W6], the “chemotaxis compared with the parental HD2 peptide” value at CXCL6 was “significant reduction in chemotaxis”. Besides, in assay [1], the “Chemokines Bound log2E 1-5” value is “CCL1, CCL17, CCL18, CCL2,; also recorded: CCL20, CCL3, CCL4, IL8” and the “Chemokines Bound log2E > 5” value is “CCL19, CCL25,; also recorded: CCL28, X3CL1,; also recorded: CXL10, CXL11,; also recorded: SDF1, CXL13,; also recorded: CXL14”. Besides, the “mean log 2 E compared to parental HD2” value in assay [1] (over XC (CXC/CX3C) chemokines) is “significant improvement”.

(Values after patent US20260234188A1, “CHEMOKINE-BINDING PEPTIDES” (Oxford University Innovation Limited, priority 2022, published 2026).)
